Experimental data published in patent US8637252B2, “Methods and compositions for determining altered susceptibility of HIV-1 to anti-HIV drugs” (Monogram Biosciences, Inc., priority 2011, dated 2014).
Where “and” joins values, the source holds several entries; their conditions need not be identical. Equal values may be shown once.

How the values were obtained:
[1] = test system: HIV-1 (patient-derived POL segment); assay: phenotypic drug resistance test, resistance test vectors with patient-derived POL segment (entire pol gene), luciferase, 293 cells; type: cell-based
Description: Patient-derived segment(s) corresponding to the entire pol gene, encoding HIV protease, reverse transcriptase (including RNAse H), and integrase (hereinafter “POL”), the portion of pol encoding amino acids 1-305 of reverse transcriptase (hereinafter “PR-RT”), the portion of pol encoding amino acids 319-440 of reverse transcriptase (including RNAse H), and integrase (hereinafter “RHIN”), were amplified by the reverse transcription-polymerase chain reaction method (RT-PCR) using viral RNA isolated from viral particles present in the plasma or serum of HIV-infected individuals as described below. The portion of pol encoding protease, amino acids 1-531 of reverse transcriptase (including RNase H) (hereinafter “PRRT-RH”), or the portion of pol encoding protease, reverse transcriptase (including RNAse H) and integrase (hereinafter “PRRT-RHIN”), were assembled from amplicons described above by standard recombinant DNA techniques involving a KpnI restriction site at amino acid 400 or a Pin A1 site at amino acid 315.
Virus was pelleted by centrifugation at 20,400×g for 60 min from plasma (typically, 1 ml) prepared from blood samples collected in evacuated tubes containing either EDTA, acid-citrate dextrose, or heparin as an anticoagulant. Virus particles were disrupted by resuspending the pellets in 200 [1.1 of lysis buffer (4 M guanidine thiocyanate, 0.1 M Tris HCl (pH 8.0), 0.5% sodium lauryl sarcosine, 1% dithiothreitol). RNA was extracted from viral lysates by using oligo(dT) linked to magnetic beads (Dynal, Oslo, Norway). Reverse transcription was performed with Superscript III (Invitrogen) at 50 degrees for 1 hour using primer 1.
From the resultant cDNA either POL or RHIN sequences were amplified using the Advantage High Fidelity PCR kit (BD Biosciences; Clontech). POL amplification products are made using forward Primer 3 containing an Apal site and reverse Primer 4 containing a Xho 1 site. RHIN amplification products are made using forward Primer 2 containing a P1NA1 site and reverse Primer 4 containing a Xho 1 site.
A retroviral vector designed to measure antiretroviral drug susceptibility was constructed by using an infectious molecular clone of HIV-1. The vector, referred to herein as an indicator gene viral vector (IGVV), is replication defective and contains a luciferase expression cassette inserted within a deleted region of the envelope (env) gene. The IGVV is described in U.S. Pat. No. 5,837,464 (International Publication Number WO 97/27319) which is hereby incorporated by reference in its entirety. This retroviral vector was further modified to allow insertion of either the entire pol gene (POL) or the portion of poi encoding amino acids 319-440 of reverse transcriptase, the RNase H portion of reverse transcriptase, and integrase (REIN) by engineering an Xho l restriction enzyme recognition site into vif. Prior to doing this, an Xho 1 site in nef was deleted. Resistance Test vectors (RTVs) were constructed by incorporating amplified POL or RHIN into the IGVV by using Apal and Xhol or PinAI and Xho 1 restriction sites respectively. RTVs were prepared as libraries (pools) in order to capture and preserve the pol or RHIN sequence heterogeneity of the virus in the patient. POL amplification products were digested with Apal and Xhol, purified by agarose gel electrophoresis, and ligated to ApaI- and Xhol-digested IGVV DNA. RHIN amplification products were digested with PinAI and Xho/, purified by agarose gel electrophoresis, and ligated to PinAI and Xhol-digested IGVV DNA. Ligation reactions were used to transform competent Escherichia coli (Invitrogen, Carlsbad, Calif.). An aliquot of each transformation was plated onto agar, and colony counts were used to estimate the number of patient-derived segments represented in each RTV library. RTV libraries that comprised less than 50 members are not considered representative of the patient virus. […]

[2] = test system: HIV-1 (patient-derived RHIN segment); assay: phenotypic drug resistance test, resistance test vectors with patient-derived RHIN segment, luciferase, 293 cells; type: cell-based
In short: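 The patient RHIN segment (RT aa 319–440 including RNase H, plus integrase) was RT-PCR-amplified from plasma viral RNA and cloned as pools of ≥50 members into a replication-defective HIV-1 vector carrying luciferase in env. Particles were pseudotyped with amphotropic MuLV 4070A envelope in packaging cells.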

[3] = Sample 47 (K103K/N, V106V/A, Y181Y/C, G190G/A)
[4] = Sample 58 (K103N, Y181Y/C, G190G/A)
[5] = Sample 62 (K103H, P225P/H, T369T/I)
[6] = Sample 90 (K103K/N, Y181C, G190A)

Cc1ccnc2c1NC(=O)c1cccnc1N2C1CC1 [NVP, nevirapine]
fold change in IC50, pol ([1]; Sample 31 (K103N)): 400.0 fold
pol/PR-RT ratio ([1]; Sample 31 (K103N)): 4.5
fold change in IC50, pol ([1]; Sample 33 (K103S)): 25.1 fold
pol/PR-RT ratio ([1]; Sample 33 (K103S)): 1.1
fold change in IC50, pol ([1]; Sample 34): 0.3 fold
pol/PR-RT ratio ([1]; Sample 34): 1.3
fold change in IC50, pol ([1]; Sample 35 (K103H)): 28.3 fold
pol/PR-RT ratio ([1]; Sample 35 (K103H)): 1.1
fold change in IC50, pol ([1]; Sample 36 (K103K/W)): 2.4 fold
pol/PR-RT ratio ([1]; Sample 36 (K103K/W)): 0.2
fold change in IC50, pol ([1]; Sample 38 (K103N)): 81.0 fold
pol/PR-RT ratio ([1]; Sample 38 (K103N)): 0.7
fold change in IC50, pol ([1]; Sample 39 (T369A)): 2.8 fold
pol/PR-RT ratio ([1]; Sample 39 (T369A)): 9.0
fold change in IC50, pol ([1]; Sample 42 (G190G/A)): 7.1 fold
pol/PR-RT ratio ([1]; Sample 42 (G190G/A)): 0.2
fold change in IC50, pol ([1]; Sample 45): 0.3 fold
pol/PR-RT ratio ([1]; Sample 45): 1.1
fold change in IC50, pol [1, 3]: 400.0 fold
pol/PR-RT ratio [1, 3]: 1.0
fold change in IC50, pol ([1]; Sample 50 (K103N)): 72.7 fold
pol/PR-RT ratio ([1]; Sample 50 (K103N)): 0.5
fold change in IC50, pol ([1]; Sample 51): 0.7 fold
pol/PR-RT ratio ([1]; Sample 51): 1.6
fold change in IC50, pol ([1]; Sample 52): 1.8 fold
pol/PR-RT ratio ([1]; Sample 52): 0.9
fold change in IC50, pol [1, 4]: 400.0 fold
pol/PR-RT ratio [1, 4]: 1.0
fold change in IC50, pol [1, 5]: 400.0 fold and 400.00 fold
pol/PR-RT ratio [1, 5]: 6.3
fold change in IC50, pol ([1]; Sample 64 (T369T/A)): 0.3 fold
pol/PR-RT ratio ([1]; Sample 64 (T369T/A)): 0.3
fold change in IC50, pol ([1]; Sample 69): 1.6 fold
pol/PR-RT ratio ([1]; Sample 69): 1.6
fold change in IC50, pol ([1]; Sample 72): 1.1 fold
pol/PR-RT ratio ([1]; Sample 72): 1.6
fold change in IC50, pol ([1]; Sample 80 (K103K/N, Y181Y/C)): 17.0 fold
pol/PR-RT ratio ([1]; Sample 80 (K103K/N, Y181Y/C)): 0.4
fold change in IC50, pol ([1]; Sample 81 (K103N, P225H)): 114.0 fold
pol/PR-RT ratio ([1]; Sample 81 (K103N, P225H)): 1.2
fold change in IC50, pol ([1]; Sample 84): 0.9 fold
pol/PR-RT ratio ([1]; Sample 84): 1.2
fold change in IC50, pol ([1]; Sample 85): 400.0 fold
pol/PR-RT ratio ([1]; Sample 85): 3.0
fold change in IC50, pol ([1]; Sample 87): 1.4 fold
pol/PR-RT ratio ([1]; Sample 87): 1.7
fold change in IC50, pol ([1]; Sample 89 (L1001, K103N)): 400.0 fold
pol/PR-RT ratio ([1]; Sample 89 (L1001, K103N)): 10.8
fold change in IC50, pol [1, 6]: 400.0 fold
pol/PR-RT ratio [1, 6]: 1.0
fold change in IC50, pol ([1]; Sample 92): 1.1 fold
pol/PR-RT ratio ([1]; Sample 92): 1.0
fold change in IC50, pol ([1]; Sample 93): 1.4 fold
pol/PR-RT ratio ([1]; Sample 93): 0.9
FC ([2]; Pool of patient sample 62, RT codons mutated: N348 (0.5), T369 (0.5), T377, T403): 7.61
fold change in IC50, RHIN ([2]; Sample 31 (K103N)): 2.1 fold
fold change in IC50, RHIN ([2]; Sample 33 (K103S)): 1.0 fold
fold change in IC50, RHIN ([2]; Sample 34): 0.7 fold
fold change in IC50, RHIN ([2]; Sample 35 (K103H)): 1.2 fold
fold change in IC50, RHIN ([2]; Sample 36 (K103K/W)): 1.0 fold
fold change in IC50, RHIN ([2]; Sample 38 (K103N)): 0.5 fold
fold change in IC50, RHIN ([2]; Sample 39 (T369A)): 2.6 fold
fold change in IC50, RHIN ([2]; Sample 42 (G190G/A)): 0.6 fold
fold change in IC50, RHIN ([2]; Sample 45): 1.3 fold
fold change in IC50, RHIN [2, 3]: 1.0 fold
fold change in IC50, RHIN ([2]; Sample 50 (K103N)): 0.6 fold
fold change in IC50, RHIN ([2]; Sample 51): 0.6 fold
fold change in IC50, RHIN ([2]; Sample 52): 0.9 fold
fold change in IC50, RHIN [2, 4]: 1.7 fold
fold change in IC50, RHIN [2, 5]: 7.6 fold and 7.61 fold
fold change in IC50, RHIN ([2]; Sample 64 (T369T/A)): 0.4 fold
fold change in IC50, RHIN ([2]; Sample 69): 0.9 fold
fold change in IC50, RHIN ([2]; Sample 72): 1.6 fold
fold change in IC50, RHIN ([2]; Sample 80 (K103K/N, Y181Y/C)): 0.72 fold
fold change in IC50, RHIN ([2]; Sample 81 (K103N, P225H)): 1.4 fold
fold change in IC50, RHIN ([2]; Sample 84): 0.7 fold
fold change in IC50, RHIN ([2]; Sample 85): 2.1 fold
fold change in IC50, RHIN ([2]; Sample 87): 1.9 fold
fold change in IC50, RHIN ([2]; Sample 89 (L1001, K103N)): 2.7 fold
fold change in IC50, RHIN [2, 6]: 1.2 fold
fold change in IC50, RHIN ([2]; Sample 92): 0.5 fold
fold change in IC50, RHIN ([2]; Sample 93): 1.1 fold
FC ([2]; clone c03a of patient sample 62, RT codons mutated: T377, T403): 1.64
FC ([2]; clone c03b of patient sample 62, RT codons mutated: A355, T369, T377, T403): 5.51
FC ([2]; clone c08 of patient sample 62, RT codons mutated: H315, T369, T377): 12.98
FC ([2]; clone c10 of patient sample 62, RT codons mutated: N348, T377, T403): 28.07
FC ([2]; clone c12 of patient sample 62, RT codons mutated: T369, T377, T403): 9.18
FC ([2]; clone c14 of patient sample 62, RT codons mutated: Y342, T377, T403, R448): 6.48
FC ([2]; clone c15 of patient sample 62, RT codons mutated: N348, Y354, T403, N418): 2.37
FC ([2]; clone c16 of patient sample 62, RT codons mutated: T377, T403, D511 (0.5)): 2.19
FC ([2]; clone c18 of patient sample 62, RT codons mutated: A371, T377, T403): 2.46
FC ([2]; clone c20 of patient sample 62, RT codons mutated: T377, T403): 3.97
FC ([2]; clone c21 of patient sample 62, RT codons mutated: T377, T403, K550): 5.16
FC ([2]; clone c23 of patient sample 62, RT codons mutated: T369, T377, T403): 10.11
FC ([2]; clone c24 of patient sample 62, RT codons mutated: T377, T403): 4.77
FC ([2]; clone c26 of patient sample 62, RT codons mutated: T369, T377, T403): 12.00
FC ([2]; clone c28 of patient sample 62, RT codons mutated: T377, I393, T403, R448): 0.54
